Source: publication PMC8440923, “Peptides Targeting the Interaction Between Erb1 and Ytm1 Ribosome Assembly Factors” (Frontiers in Molecular Biosciences, 2021)
Residues, ends and D or L forms follow the SMILES beside them. No end group written: not given here. *: point of attachment. Biotin = O=C1N[C@H]2[C@H](CS[C@H]2CCCCC(=O)*)N1

Key:
Ytm1 [1] = target: T1, Ytm1 (Thermochaetoides thermophila, UniProt G0SFB5); assay: Biolayer interferometry peptide affinity assay, immobilized biotinylated peptide, Ytm1 analyte; parameters: species or system Chaetomium thermophilum; details: BLI, streptavidin biosensor, 50 µg/ml biotinylated peptide immobilized, read-out: ka (1/Ms) of Ytm1 binding to immobilized biotinylated peptide
T1 construct: 6xHis; made in house; host or cells: Sf9 insect cells (baculovirus)
T1 sequence (G0SFB5 1-495): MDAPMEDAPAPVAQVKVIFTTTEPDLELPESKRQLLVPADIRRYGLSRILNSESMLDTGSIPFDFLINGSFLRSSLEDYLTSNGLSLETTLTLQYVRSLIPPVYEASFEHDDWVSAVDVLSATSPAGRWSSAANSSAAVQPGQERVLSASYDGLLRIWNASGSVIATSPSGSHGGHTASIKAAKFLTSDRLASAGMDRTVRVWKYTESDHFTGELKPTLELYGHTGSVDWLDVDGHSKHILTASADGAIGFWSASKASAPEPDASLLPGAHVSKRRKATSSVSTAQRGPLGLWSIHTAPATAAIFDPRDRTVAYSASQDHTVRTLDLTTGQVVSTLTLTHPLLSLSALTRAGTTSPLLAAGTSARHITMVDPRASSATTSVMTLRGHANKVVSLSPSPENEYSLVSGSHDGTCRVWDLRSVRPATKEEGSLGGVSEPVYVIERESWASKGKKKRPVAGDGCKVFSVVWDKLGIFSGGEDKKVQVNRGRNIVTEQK
Method: (§1) Peptides were commercially obtained from Synpeptide Co., Ltd., Shanghai, China. All experiments have been made in triplicates and include control curves for bait and analyte only.
(§2) BLI was used to determine the affinity between Ytm1 and biotinylated peptides using streptavidin biosensors (FortéBio). The biosensors were hydrated 10 min in the same buffer used on the interference assay, with 0.05% (w/v) bovine serum albumin (BSA). 50 µg/ml of biotinylated peptide was immobilized at the streptavidin biosensor. Increasing concentrations of Ytm1 were used to calculate the KD values using the Blitz Pro 1.2 software using the implemented equations for association and dissociation:
Association phase: y=Rmax 1/1+kd/ka∗[Analyte](1−e^−(ka∗[Analyte]+kd)x) .
Dissociation phase: y=y0 e^−kd(x−x0). y0=Rmax 1/1+kd/ka∗[Analyte](1−e^−(ka∗[Analyte]+kd)x0).
According to P1, P3, and P6 results, a new N-terminal biotynilated peptide synthesis was ordered using the same sequences (Biot-P1, Biot-P3, and Biot-P6, Table 1). Biotynilated peptides Biot-P1 and Biot-P3 were immobilized to the streptavidin biosensor and Ytm1 binding was measured. Similarly, Biot-P6 was immobilized to the streptavidin biosensor followed by Erb1 binding. […] Inconsistent results were obtained in DSF using Erb1 and a proper Tm could not be obtained so thermal shift could not be evaluated for P6.

Erb1/Ytm1 complex [2] = target: T2, Erb1/Ytm1 complex (Thermochaetoides thermophila, UniProt G0SCK6); assay: Biolayer interferometry peptide interference assay, immobilized Ytm1, Erb1 analyte preincubated with P4-P6; assay type: binding, Chaetomium thermophilum; details: BLI, 20 µM Erb1 preincubated with equimolar peptide, reference without peptide 1.201e-3
T2 construct: 6xHis; made in house; host or cells: Erb1: Escherichia coli (DE3) BL21 CodonPlus (RIPL); Ytm1: Sf9 insect cells (baculovirus)
T2 sequence (G0SCK6 whole entry, one chain of several): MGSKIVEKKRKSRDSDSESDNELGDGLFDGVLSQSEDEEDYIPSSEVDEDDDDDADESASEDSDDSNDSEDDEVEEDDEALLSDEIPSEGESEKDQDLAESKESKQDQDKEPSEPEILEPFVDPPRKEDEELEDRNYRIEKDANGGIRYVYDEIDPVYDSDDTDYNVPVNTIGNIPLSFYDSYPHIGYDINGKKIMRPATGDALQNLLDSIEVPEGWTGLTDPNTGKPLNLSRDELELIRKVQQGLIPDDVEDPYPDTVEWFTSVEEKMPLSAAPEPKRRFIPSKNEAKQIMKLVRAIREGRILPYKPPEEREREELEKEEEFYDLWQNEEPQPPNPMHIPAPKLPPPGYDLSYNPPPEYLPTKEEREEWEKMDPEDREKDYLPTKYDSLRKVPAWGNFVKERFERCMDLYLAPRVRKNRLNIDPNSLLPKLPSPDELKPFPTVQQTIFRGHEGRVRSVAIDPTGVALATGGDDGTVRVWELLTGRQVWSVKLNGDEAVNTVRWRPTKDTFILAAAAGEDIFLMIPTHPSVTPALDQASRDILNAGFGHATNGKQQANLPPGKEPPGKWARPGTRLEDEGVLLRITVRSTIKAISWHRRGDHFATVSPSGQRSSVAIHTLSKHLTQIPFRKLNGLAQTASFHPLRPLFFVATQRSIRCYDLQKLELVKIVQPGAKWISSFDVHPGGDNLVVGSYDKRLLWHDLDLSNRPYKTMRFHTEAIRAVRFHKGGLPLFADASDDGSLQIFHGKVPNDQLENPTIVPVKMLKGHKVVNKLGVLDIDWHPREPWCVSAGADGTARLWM

Ytm1 [3] = target: T1, Ytm1; assay: Differential scanning fluorimetry (thermofluor) of Ytm1 with peptide; assay type: binding, Chaetomium thermophilum; details: DSF, SYPRO Orange 1:1,000; 5 µM Ytm1, 1 mM peptide; 50 mM HEPES pH 7.5, 150 mM NaCl; 20-85°C at 1°C/min; triplicates
Method: Thermofluor assays ([Pantoliano et al., 2001]) were performed on a 7,500 Fast Real-Time PCR System (Applied Biosystems) measuring the gradual fluorescence generated by a 1:1,000 dilution of SYPRO Orange Protein Stain Gel (Supelco, Merck-Sigma) along with 1°C/min temperature increase from 20°C until 85°C.
The samples were mixed containing the protein Ytm1 at 5 µM in 50 mM HEPES pH 7.5, 150 mM NaCl and peptides P1-P3 at 1 mM concentration. Previously, lyophilized P2 and P3 were resuspended in the same Ytm1 buffer and P1 was solubilized in 10 mM Tris (hydroxymethyl)-methylamine (Tris-HCl), pH 8.8 for P1. Data of triplicated experiments were analyzed using GraphPad Prism 5.01 software.

Erb1/Ytm1 complex [4] = target: T3, Erb1/Ytm1 complex (Thermochaetoides thermophila, UniProt G0SFB5); assay: Biolayer interferometry peptide interference assay, immobilized Erb1, Ytm1 analyte preincubated with P1-P3; assay type: binding, Chaetomium thermophilum; details: BLI, 5 µM Ytm1 preincubated with equimolar peptide, reference without peptide 1.724e-3
T3 construct: 6xHis; made in house; host or cells: Ytm1: Sf9 insect cells (baculovirus); Erb1: Escherichia coli (DE3) BL21 CodonPlus (RIPL)
T3 sequence (G0SFB5 1-495): T1 sequence (G0SFB5 1-495)
Method: as §1
Potential interference peptide samples were evaluated by their ability to interfere the kinetics and affinity of the complex between Erb1 and Ytm1 as measured by Biolayer Interferometry (BLItz, Pall FortéBio Corp.) using Ni-NTA biosensors (FortéBio) and 50 mM HEPES, pH 7.5; 150 mM NaCl; 5% (v/v) glycerol; and 2 mM β-mercaptoethanol (BME) buffer. To set the reference KD, an 80 µg/ml solution of Erb1 was immobilized to the biosensor in order to obtain binding curves for increasing concentrations of Ytm1. According to this, an evaluation of Erb1-derived peptides (P1–P3) was performed using 5 µM Ytm1 previously incubated during 30 min at equimolar concentrations of each peptide. New KD values were determined. […]
Biolayer interferometry interference assays were used to evaluate the ability of each peptide to interfere in the in vitro formation of the Erb1/Ytm1 complex. […] Peptides were evaluated for their ability to decrease in the Erb1/Ytm1 complex formation by preincubating the analyte with each peptide derived from the immobilized partner. […] Erb1-derived peptides were evaluated by their ability to decrease Erb1/Ytm1 complex affinity. […]

Erb1 = assay: Biolayer interferometry peptide affinity assay, immobilized biotinylated peptide, Erb1 analyte; assay type: binding, Chaetomium thermophilum; details: BLI, streptavidin biosensor, Erb1 as analyte
Method: as §1
as §2, with “dissociation: […]” for “dissociation:”
According to P1, P3, and P6 results, a new N-terminal biotynilated peptide synthesis was ordered using the same sequences (Biot-P1, Biot-P3, and Biot-P6, Table 1). Biotynilated peptides Biot-P1 and Biot-P3 were immobilized to the streptavidin biosensor and Ytm1 binding was measured. Similarly, Biot-P6 was immobilized to the streptavidin biosensor followed by Erb1 binding. […] To further confirm the interaction a differential scanning fluorimetry assay was performed. […] Inconsistent results were obtained in DSF using Erb1 and a proper Tm could not be obtained so thermal shift could not be evaluated for P6.

[5] = target: T4, Ytm1 (Chaetomium thermophilum ribosome assembly factor) (Chaetomium thermophilum, UniProt G0SFB5 1-495); assay: BLI; biotinylated peptide (50 µg/ml) immobilised on streptavidin biosensor; Ytm1 (or Erb1 for Biot-P6) as analyte; interference-assay buffer with 0.05% BSA; details: both partners purified
T4 construct: Ytm1, Chaetomium thermophilum; YTM1 gene amplified from total cDNA and cloned in pOPIN-F; For MST, Ytm1 was labelled with the Red-NHS second-generation dye; source: Sf9 insect cells (baculovirus), purified (Histrap-HP Ni, Superdex 200 SEC)
T4 sequence: T1 sequence (G0SFB5 1-495)

[6] = target: T5, Ytm1 (Chaetomium thermophilum ribosome assembly factor) (Chaetomium thermophilum, UniProt G0SFB5 1-495); assay: BLI
T5 chain: T1 sequence (G0SFB5 1-495)

[7] = target: T4, Ytm1 (Chaetomium thermophilum ribosome …); assay: MST; 5 nM Ytm1 labelled with Red-NHS second-generation dye; 50 mM HEPES pH 7.5, 150 mM NaCl, 0.1% Pluronic F-127; peptide in sixteen serial dilutions (P1 1,230-0.0751 µM; P3 maximum 1,580 µM); Monolith NT.115; details: both partners purified

CC(C)[C@H](NC(=O)[C@H](CS)NC(=O)[C@H](Cc1c[nH]c2ccccc12)NC(=O)[C@@H]1CCCN1C(=O)[C@H](CCC(=O)O)NC(=O)[C@H](CCCNC(=N)N)NC(=O)[C@@H]1CCCN1C(=O)[C@H](Cc1c[nH]cn1)NC(=O)[C@H](Cc1c[nH]c2ccccc12)NC(=O)[C@H](CC(=O)O)NC(=O)CCCC[C@@H]1SC[C@@H]2NC(=O)N[C@@H]21)C(=O)O [Biot-P3] (Biotin-DWHPREPWCV-OH)
kon (Ytm1 [1]): 829 M⁻¹ s⁻¹

AGMDRTV [Peptide P5, Ytm1-derived peptide AGMDRTV, residues 194–200]
kd (1/s) of Ytm1/Erb1 binding after preincubation of Erb1 with peptide (Erb1/Ytm1 complex [2]): 0.001655 s⁻¹

QQTIFRGH [Peptide P2, Erb1-derived peptide QQTIFRGH, residues 445–452]
Thermal shift (Tm) of Ytm1 in the presence of peptide (Ytm1 [3]): no significant thermal shift
kd (1/s) of Erb1/Ytm1 binding after preincubation of Ytm1 with peptide (Erb1/Ytm1 complex [4]): 0.01393 s⁻¹

CC(C)C[C@H](NC(=O)[C@H](CCC(=O)O)NC(=O)[C@H](Cc1c[nH]c2ccccc12)NC(=O)[C@@H](NC(=O)CCCC[C@@H]1SC[C@@H]2NC(=O)N[C@@H]21)C(C)C)C(=O)N[C@@H](CC(C)C)C(=O)N[C@H](C(=O)NCC(=O)N[C@@H](CCCNC(=N)N)C(=O)N[C@@H](CCC(N)=O)C(=O)N[C@H](C(=O)N[C@@H](Cc1c[nH]c2ccccc12)C(=O)O)C(C)C)[C@@H](C)O [Biot-P1] (Biotin-VWELLTGRQVW-OH)
kon (Ytm1 [1]): 386 M⁻¹ s⁻¹

HDDWVSA [Peptide P4, Ytm1-derived peptide HDDWVSA, residues 110–116]
kd (1/s) of Ytm1/Erb1 binding after preincubation of Erb1 with peptide (Erb1/Ytm1 complex [2]): 0.001585 s⁻¹

Biotin-RGHANKV [Biot-P6]
Binding of Erb1 to immobilized biotinylated peptide (Erb1): could not detect binding
Binding of Erb1 to immobilized biotinylated peptide (Erb1; listed as biot-P6): did not show binding

B1: Biot-P3 (N-terminally biotinylated Erb1 780-789) (peptide)
peptide: Biotin-DWHPREPWCV
notes: Erb1, Chaetomium thermophilum, residues 780-789; source: synthetic peptide, bought: Synpeptide Co., Ltd., Shanghai
binding result [5]: binds
Kd [6]: 6.29 µM

B2: Peptide P1 (Erb1 479-489) (peptide)
peptide: VWELLTGRQVW
notes: Erb1, Chaetomium thermophilum, residues 479-489; source: synthetic peptide, bought: Synpeptide Co., Ltd., Shanghai
Kd [7]: 8.2 µM

B3: Biot-P1 (N-terminally biotinylated Erb1 479-489) (peptide)
peptide: Biotin-VWELLTGRQVW
notes: as for B2
binding result [5]: binds
Kd [6]: 33.4 µM
